In a melting point compilation (Tetko et al.):

melting point | SMILES
169 to 171 °C | CCOc1cc2c(cc1/C=C/C(=O)O)OC(C)C2 (stereo not given)
230 to 232 °C | O=C(Nc1ccsc1C(=O)O)c1ccncc1
201 to 204 °C | Nc1ccc2c(c1)N1CCN=C1S2
85 to 87 °C | COCCOc1ccc(C(C)=O)cc1OC
145 to 147 °C | NCc1ccc(C(=O)Nc2ccc(F)cc2)cc1
219 to 221 °C | Nc1nnc(-c2cccc3ccccc23)[nH]1
129 to 131 °C | Nc1nc2c(Cl)c(Cl)ccc2s1
245 to 247 °C | Cc1nn(Cc2ccc(Cl)cc2)c2sc(C(=O)O)cc12
75 to 77 °C | CSC(C(=O)O)c1ccccc1 (stereo not given)
192 to 194 °C | O=C(O)/C=C/c1cc(Cl)ccc1Cl
165 to 167 °C | Cc1ccc(-c2nc(-c3ccccc3)sc2CC(=O)O)cc1
143 to 145 °C | Nc1cc(Br)ccc1[N+](=O)[O-]
106 to 108 °C | O=C(O)C(Sc1cc(F)ccc1F)c1ccccc1 (stereo not given)
148 to 150 °C | Cc1ccc2cc(C=O)c(Cl)nc2c1
47 to 49 °C | CCOc1ccc(S(=O)(=O)Cl)cn1
117 to 119 °C | CC(C)(C)OC(=O)Nc1cc(N)c(F)cc1F
49 to 51 °C | O=C(N=C=S)c1ccc(Cl)c(Cl)c1
182 to 184 °C | COc1ccc(-n2ccc(C(=O)O)n2)cc1
66 to 68 °C | O=C(O)C1=CCCCO1
80 to 82 °C | CN1CCCN(C(=O)c2ccccc2N)CC1
33 to 35 °C | CCCC(C)=CC(=O)O
140 to 142 °C | O=C(O)c1cccc(S(=O)(=O)Nc2ccc(F)cc2)c1
139 to 141 °C | NNS(=O)(=O)Cc1ccc([N+](=O)[O-])cc1

melting point | SMILES
89 to 91 °C | CC(C)(C(=O)O)c1ccc(F)cc1
104 to 106 °C | CN(C)c1ccc(NCc2ccc3ccccc3n2)cc1
98 to 100 °C | CCOC(=O)c1c(CC(C)C)csc1NC(=O)CCl
123 to 125 °C | O=C(O)C1CCCCC1C(=O)N1CCc2ccccc21 (stereo not given)
61 to 63 °C | O=C1C=CC(=O)N1CCc1ccc([N+](=O)[O-])cc1
190 to 192 °C | Cc1nc(-c2ccc(Br)cc2)n[nH]1
120 to 122 °C | O=C(O)C(=O)NCCCc1ccccc1
82 to 84 °C | CCC(=O)c1ccc(C(=O)OC)cc1
152 to 154 °C | O=C(Nc1ccc(S(=O)(=O)Cl)cc1)C(F)(F)F
92 to 94 °C | CCNC(=O)c1ccc(CN)cc1
177 to 179 °C | O=CC(Br)C=Nc1cnc(Br)cn1 (stereo not given)
174 to 176 °C | Nc1ccc(-c2csc(N3CCOCC3)n2)cc1
113 to 115 °C | Cn1cccc1C(=O)NN
138 to 140 °C | Cc1ccc(S(=O)(=O)NCCCC(=O)O)cc1
47 to 49 °C | Cc1nc2c(F)cccc2c(Cl)c1C(C)C
199 to 201 °C | Nc1cccc(-n2cnnc2)c1
177 to 179 °C | NS(=O)(=O)c1ccc(OCC(=O)O)c(F)c1
169 to 171 °C | O=C(O)CCc1ncc(-c2ccc(F)cc2F)o1
143 to 145 °C | Cc1csc(NC(=O)Cc2ccc(N)cc2)n1
145 to 147 °C | O=[N+]([O-])c1cc(NS(=O)(=O)c2ccc3c(c2)OCCCO3)ccc1F
131 to 133 °C | CN(C1CC1)S(=O)(=O)c1ccc(N)cc1
259 to 261 °C | O=C(O)c1ccc(N2CCC(O)CC2)cc1
241 to 243 °C | Cc1cc(C)n2nc(O)cc2n1

melting point | SMILES
92 to 94 °C | CCN1CC(C(=O)O)CC1=O (stereo not given)
136 to 138 °C | CCNC(=O)c1ccc(Cl)nc1
127 to 129 °C | c1ccc(CNc2nccs2)cc1
64 to 66 °C | Cc1cc(O)c(C=O)cc1C
81 to 85 °C | N#Cc1cc(Cl)ccn1
31 to 33 °C | O=C(CCCc1ccccc1)Cc1ccc(Cl)cc1
119 to 121 °C | CC(C)C(Br)C(=O)NC1CCCCCC1 (stereo not given)
153 to 155 °C | CC1CC(C)CN(S(=O)(=O)c2ccc(S(=O)(=O)Cl)cc2)C1 (stereo not given)
175 to 177 °C | CCc1cccc2c(CC(=O)O)c[nH]c12
80 to 82 °C | OCCNc1ccc(Br)cc1
43 to 45 °C | CC(C)(C)OC(=O)NCCCCC(=O)O
76 to 78 °C | O=C(O)CCCOc1ccccc1F
225 to 227 °C | COc1ccc(C(=O)Nc2ncc(C)s2)cc1N
38 to 40 °C | CCOc1cc(C=O)ccc1OCC(F)(F)F
89 to 91 °C | CC(CC#N)Sc1ccccc1NC(=O)CCl (stereo not given)
156 to 158 °C | NC(=S)CN1C(=O)CCC1=O
125 to 127 °C | O=[N+]([O-])c1cc2c(cc1S(=O)(=O)Cl)OCCCO2
160 to 162 °C | CC(=O)Nc1ccc(S(=O)(=O)NCCC(=O)O)cc1
110 to 112 °C | CNc1cc(F)ccc1[N+](=O)[O-]
196 to 198 °C | Brc1ccccc1-c1nc2cccnc2[nH]1
164 to 166 °C | COc1cc(OC)cc(C(=O)N2CCC(C(=O)O)CC2)c1
47 to 49 °C | Cc1cc(C=O)cnc1Cl
237 to 239 °C | Nc1nc2cc(-c3ccccc3)cc(Cl)c2o1

melting point | SMILES
109 to 111 °C | Cc1c(C(=O)O)cc(Cl)cc1S(=O)(=O)Cl
128 to 130 °C | COc1ccc(C(=O)Nc2cccc(C=O)c2)cc1
119 to 121 °C | CC(C)CC(C(=O)O)N1C(=O)c2ccccc2C1=O (stereo not given)
193 to 195 °C | CCCS(=O)(=O)c1ccc(C(=O)O)cc1
79 to 81 °C | O=C(O)c1cc(OC(F)F)cc(OC(F)F)c1
79 to 81 °C | CNCC(=O)Nc1ccc(C)cn1
171 to 173 °C | Cc1sc(-n2c(C)ccc2C)c(C(=O)O)c1C
217 to 219 °C | CC(C)(C)OC(=O)N1CCC(NC(N)=O)CC1
116 to 118 °C | CC(C)c1nc2ccccc2n1CC#N
95 to 97 °C | Cc1cc(C)cc(-n2nc(C)cc2N)c1
157 to 159 °C | Cc1cccc(-n2nnc(C(=O)O)c2C)c1
79 to 81 °C | CCOc1ccc(Cl)cc1C(C)=O
196 to 198 °C | O=C(O)C1CC2COCC(C1)C2=O (stereo not given)
142 to 144 °C | O=C(O)c1cccc2c1CCCN2
84 to 86 °C | Nc1ccc(F)cc1-n1cccc1
119 to 121 °C | Cc1cccc(-c2noc(S)n2)c1
182 to 189 °C | CCN(CC)S(=O)(=O)c1ccc(=O)n(CC(=O)O)c1
127 to 129 °C | CCc1ccc(N)c(C(=O)O)c1
75 to 77 °C | CC(NC(=O)CCl)c1ccccc1 (stereo not given)
201 to 203 °C | CC(=O)c1c[nH]c(C(=O)O)c1
109 to 111 °C | CCc1ccnc(C(=O)O)c1
218 to 220 °C | O=C(O)c1ccc(I)c(Cl)c1
90 to 92 °C | Cc1ccc(Oc2ccc(N)cn2)cc1

melting point | SMILES
139 to 141 °C | O=C(O)CS(=O)(=O)c1cccc(Br)c1
159 to 161 °C | CS(=O)(=O)Cc1ccc(N)cc1
135 to 137 °C | COC(=O)c1ccc(C)c(NC(=O)CCl)c1
< 17 °C | CN(C)C(=O)CSc1ccccc1C(=O)O
129 to 131 °C | CC(C)c1ncc(Cl)c(C(=O)O)n1
51 to 53 °C | OCCOc1ccc(Br)cn1
109 to 111 °C | O=C(O)CCS(=O)(=O)c1ccc2c(c1)OCCCO2
270 to 272 °C | Cc1sc2nc(S)n(C(C)C)c(=O)c2c1C
216 to 218 °C | CCS(=O)(=O)c1ccc(C(=O)O)cc1
110 to 112 °C | N#Cc1ccc(Oc2ccc(S(=O)(=O)Cl)cc2)cc1
88 to 90 °C | NCc1cnn(-c2cccc(Cl)c2)c1
141 to 143 °C | O=C1COc2c1ccc(Cl)c2Cl
265 to 267 °C | O=C1NC(=O)C2(CCSCC2)N1
285 to 287 °C | O=S(=O)(c1ccc2[nH]c(S)nc2c1)N1CCOCC1
116 to 118 °C | COc1ccc(CC(=O)O)cc1S(=O)(=O)N1CCOCC1
173 to 175 °C | Sc1nccn1Cc1ccccn1
108 to 110 °C | Cc1ccc(S(=O)(=O)OCc2nc3ccccc3s2)cc1
191 to 193 °C | Fc1ccc(-n2c(S)nc3ccccc32)c(F)c1
150 to 152 °C | COC(=O)c1ccc(NS(=O)(=O)c2ccc(C)cc2)cc1
234 to 236 °C | Nc1ccc(NC(=O)CCN2C(=O)CNC2=O)cc1
94 to 96 °C | Nc1cc([N+](=O)[O-])ccc1Sc1cccs1
184 to 186 °C | O=C(O)c1ccc(SCc2ccccc2)cc1
65 to 67 °C | CNCC1CCN(c2ccncc2)CC1

melting point | SMILES
148 to 150 °C | NC(=O)c1ccsc1NC(=O)CCl
109 to 111 °C | Cc1cn2cc(Br)cc(C)c2n1
105 to 107 °C | Cc1ccc(S(=O)(=O)C(C#N)c2nc3ccccc3nc2Cl)cc1 (stereo not given)
182 to 184 °C | CC(C)(C#N)N1CCN(C(C)(C)C#N)CC1
91 to 93 °C | CCNS(=O)(=O)c1ccc(Br)c(C)c1
170 to 172 °C | COC(=O)COc1ccc(C(=O)O)cc1OC
249 to 251 °C | Cc1sc2[nH]c(CCC(=O)O)nc(=O)c2c1C
244 to 246 °C | Cc1ccc2nc(-c3cccc(C)c3O)[nH]c2c1
379 to 381 °C | CC(=O)Nc1ccc(N2C(=O)c3ccc(C(=O)O)cc3C2=O)cc1
146 to 148 °C | CC(C)c1cc(N)n(-c2ncccn2)n1
239 to 241 °C | Cc1nc2c(Cl)cccc2n1O
144 to 146 °C | CC12CCCC(C(=O)O)(CCC1)C2
177 to 179 °C | Cc1cc(C(=O)NN)c2ccccc2n1
151 to 153 °C | O=C1CCCS(=O)(=O)c2ccccc21
165 to 167 °C | O=C(O)c1ccc(COc2ccc(F)cc2)o1
161 to 163 °C | Cn1c(Cl)nnc1-c1ccc(Cl)cc1Cl
174 to 176 °C | CN(C)S(=O)(=O)c1ccc(Br)c(C(=O)O)c1
217 to 219 °C | Cc1ccc(-c2cn[nH]c2)cc1
171 to 173 °C | O=C(O)c1ccc(COc2ccc3ccccc3c2)o1
109 to 111 °C | CC(=O)Nc1cc(C)c(S(=O)(=O)Cl)cc1Br
105 to 107 °C | Cc1ccc(N)cc1S(=O)(=O)N1CCCCC1
161 to 163 °C | CC(=O)c1ccc(S(=O)(=O)N2CCOCC2)cc1
198 to 200 °C | Cc1cc(C)c2cc(C(=O)O)sc2n1

SMILES | melting point
CN1CCN(C(=O)Cc2cccc(N)c2)CC1 | 138 to 140 °C
NC(CC(=O)O)C1CC1 (stereo not given) | 209 to 211 °C
